Bounds are passed on as bounds.

Broadly, the IC50 is the point on the concentration scale where inhibition reaches its midpoint.

In the first test the target is TrkA kinase (Homo sapiens, UniProt P04629). Description: TrkA kinase assay (mobility shift assay). The test is classed as biochemical. The following applies: class symbols; read-out: Trk A Kinase IC50. A digest of the protocol: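 Ten-point compound series was preincubated 10 min at room temperature with TrkA, then FAM-peptide plus ATP added in HEPES pH 7.5/Brij-35 buffer and reacted at 28 °C before EDTA quench.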
Chain of TrkA kinase (P04629 33-796): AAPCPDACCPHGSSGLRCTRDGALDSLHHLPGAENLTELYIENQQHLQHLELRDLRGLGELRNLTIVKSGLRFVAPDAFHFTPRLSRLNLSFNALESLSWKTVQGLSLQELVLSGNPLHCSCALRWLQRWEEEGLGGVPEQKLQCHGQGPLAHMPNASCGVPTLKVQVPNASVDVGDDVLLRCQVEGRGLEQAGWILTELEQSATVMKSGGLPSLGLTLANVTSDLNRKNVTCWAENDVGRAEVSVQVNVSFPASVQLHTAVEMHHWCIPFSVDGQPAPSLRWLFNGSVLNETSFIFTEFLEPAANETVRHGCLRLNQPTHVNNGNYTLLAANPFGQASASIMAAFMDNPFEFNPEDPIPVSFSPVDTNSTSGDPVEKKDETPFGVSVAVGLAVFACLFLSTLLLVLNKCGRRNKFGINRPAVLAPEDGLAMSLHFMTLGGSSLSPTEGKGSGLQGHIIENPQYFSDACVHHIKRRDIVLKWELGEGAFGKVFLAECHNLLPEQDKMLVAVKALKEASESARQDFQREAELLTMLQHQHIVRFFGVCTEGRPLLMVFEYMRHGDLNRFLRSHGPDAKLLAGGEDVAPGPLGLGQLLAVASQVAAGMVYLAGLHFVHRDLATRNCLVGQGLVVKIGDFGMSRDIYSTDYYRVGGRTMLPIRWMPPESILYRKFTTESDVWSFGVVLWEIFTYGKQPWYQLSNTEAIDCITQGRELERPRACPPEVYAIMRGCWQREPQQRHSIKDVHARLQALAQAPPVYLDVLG
In the case of `CN(C)CCN(C)c1cc2[nH]c(-c3cnn4ccc(N5CCC[C@@H]5c5cc(F)ccc5F)nc34)nc2cc1C#N` [Compound 168, (R)-2-(5-(2-(2,5-difluorophenyl)pyrrolidin-1-yl)pyrazolo[1,5-a]pyrimidin-3-yl)-6-((2-(dimethylamino)ethyl)(methyl)amino)-1H-benzo[d]imidazole-5-carbonitrile], the half-maximal inhibitory concentration (IC50) is ≤ 10 nM. Still for that read-out and setting: then `CS(=O)(=O)c1ccc2nc(-c3cnn4ccc(N5CCC[C@@H]5c5cc(F)ccc5F)nc34)[nH]c2c1` [Compound 170, (R)-5-(2-(2,5-difluorophenyl)pyrrolidin-1-yl)-3-(6-(methylsulfonyl)-1H-benzo[d]imidazol-2-yl)pyrazolo[1,5-a]pyrimidine], with ≤ 10 nM.

On to `COc1cc2oc(-c3cnn4ccc(N5CCC[C@@H]5c5cc(F)ccc5F)nc34)nc2cc1C#N` [Compound 174, (R)-2-(5-(2-(2,5-difluorophenyl)pyrrolidin-1-yl)pyrazolo[1,5-a]pyrimidin-3-yl)-6-methoxybenzo[d]oxazole-5-carbonitrile], for which the 50% inhibitory concentration (IC50) is ≤ 10 nM.

In the case of `COC(=O)c1ccc(F)c2nc(-c3cnn4ccc(N5CCC[C@@H]5c5cc(F)ccc5F)nc34)oc12` [Compound 175, methyl (R)-2-(5-(2-(2,5-difluorophenyl)pyrrolidin-1-yl)pyrazolo[1,5-a]pyrimidin-3-yl)-4-fluorobenzo[d]oxazole-7-carboxylate], the half-maximal inhibitory concentration (IC50) was ≤ 10 nM.

Turning to `N#Cc1cc2nc(-c3cnn4ccc(N5CCC[C@@H]5c5cc(F)ccc5F)nc34)oc2cc1OC(F)(F)F` [Compound 176, (R)-2-(5-(2-(2,5-difluorophenyl)pyrrolidin-1-yl)pyrazolo[1,5-a]pyrimidin-3-yl)-6-(trifluoromethoxy)benzo[d]oxazole-5-carbonitrile], the IC50 is 10 to 50 nM. On the same count and under the same terms, next, `COC(=O)c1cc2oc(-c3cnn4ccc(N5CCC[C@@H]5c5cc(F)ccc5F)nc34)nc2cc1OC` [Compound 178, methyl (R)-2-(5-(2-(2,5-difluorophenyl)pyrrolidin-1-yl)pyrazolo[1,5-a]pyrimidin-3-yl)-5-methoxybenzo[d]oxazole-6-carboxylate]: ≤ 10 nM; `Cc1cc2nc(-c3cnn4ccc(N5CCC[C@@H]5c5cc(F)ccc5F)nc34)oc2cc1OC(F)F` [Compound 179, (R)-6-(difluoromethoxy)-2-(5-(2-(2,5-difluorophenyl)pyrrolidin-1-yl)pyrazolo[1,5-a]pyrimidin-3-yl)-5-methylbenzo[d]oxazole]: 10 to 50 nM; `COc1cc2oc(-c3cnn4ccc(N5CCC[C@@H]5c5cc(F)ccc5F)nc34)nc2cc1CN1CCC[C@H]1C(=O)O` [Compound 180, ((2-(5-((R)-2-(2,5-difluorophenyl)pyrrolidin-1-yl)pyrazolo[1,5-a]pyrimidin-3-yl)-6-methoxybenzo[d]oxazol-5-yl)methyl)-L-proline]: > 50 nM. Still for that read-out and setting: then `COc1cnc(OC)n2nc(-c3cnn4ccc(N5CCC[C@@H]5c5cc(F)ccc5F)nc34)nc12` [Compound 181, (R)-2-(5-(2-(2,5-difluorophenyl)pyrrolidin-1-yl)pyrazolo[1,5-a]pyrimidin-3-yl)-5,8-dimethoxy-[1,2,4]triazolo[1,5-c]pyrimidine], with 10 to 50 nM; and `COc1cc2nc(-c3cnn4ccc(N5CCC[C@@H]5c5cc(F)ccc5F)nc34)nn2cc1OC` [Compound 182, (R)-2-(5-(2-(2,5-difluorophenyl)pyrrolidin-1-yl)pyrazolo[1,5-a]pyrimidin-3-yl)-6,7-dimethoxy-[1,2,4]triazolo[1,5-a]pyridine], with 10 to 50 nM. Still for that read-out and setting: next, `COC(=O)c1ccc2[nH]c(-c3cnn4ccc(N5CCC[C@@H]5c5cc(F)ccc5F)nc34)cc2c1` [Compound 184, methyl (R)-2-(5-(2-(2,5-difluorophenyl)pyrrolidin-1-yl)pyrazolo[1,5-a]pyrimidin-3-yl)-1H-indole-5-carboxylate]: ≤ 10 nM; `O=C(O)c1ccc2[nH]c(-c3cnn4ccc(N5CCC[C@@H]5c5cc(F)ccc5F)nc34)cc2c1` [Compound 185, (R)-2-(5-(2-(2,5-difluorophenyl)pyrrolidin-1-yl)pyrazolo[1,5-a]pyrimidin-3-yl)-1H-indole-5-carboxylic acid]: ≤ 10 nM. For the compound `Oc1ccc2cc(-c3cnn4ccc(N5CCC[C@@H]5c5cc(F)ccc5F)nc34)[nH]c2c1` [Compound 186, (R)-2-(5-(2-(2,5-difluorophenyl)pyrrolidin-1-yl)pyrazolo[1,5-a]pyrimidin-3-yl)-1H-indol-6-ol], the IC50 fell in the range of 10 to 50 nM. On the same count and under the same terms, next, `Fc1ccc(F)c([C@H]2CCCN2c2ccn3ncc(-c4nc5c([nH]4)COCC5)c3n2)c1` [Compound 188, (R)-2-(5-(2-(2,5-difluorophenyl)pyrrolidin-1-yl)pyrazolo[1,5-a]pyrimidin-3-yl)-3,4,6,7-tetrahydropyrano[3,4-d]imidazole]: ≤ 10 nM; `Fc1ccc(F)c([C@H]2CCCN2c2ccn3ncc(-c4nc5c(s4)CCNC5)c3n2)c1` [Compound 189, (R)-2-(5-(2-(2,5-difluorophenyl)pyrrolidin-1-yl)pyrazolo[1,5-a]pyrimidin-3-yl)-4,5,6,7-tetrahydrothiazolo[4,5-c]pyridine]: ≤ 10 nM. Still for that read-out and setting: then `Fc1ccc(F)c([C@H]2CCCN2c2ccn3ncc(-c4nc5c(s4)CNCC5)c3n2)c1` [Compound 190, (R)-2-(5-(2-(2,5-difluorophenyl)pyrrolidin-1-yl)pyrazolo[1,5-a]pyrimidin-3-yl)-4,5,6,7-tetrahydrothiazolo[5,4-c]pyridine], with ≤ 10 nM; and `NC(=O)N1CCc2nc(-c3cnn4ccc(N5CCC[C@@H]5c5cc(F)ccc5F)nc34)sc2C1` [Compound 191, (R)-2-(5-(2-(2,5-difluorophenyl)pyrrolidin-1-yl)pyrazolo[1,5-a]pyrimidin-3-yl)-6,7-dihydrothiazolo[5,4-c]pyridine-5(4H)-carboxamide], with 10 to 50 nM. On the same count and under the same terms, then `Fc1ccc(F)c([C@H]2CCCN2c2ccn3ncc(-c4nc5c(s4)COCC5)c3n2)c1` [Compound 192, (R)-2-(5-(2-(2,5-difluorophenyl)pyrrolidin-1-yl)pyrazolo[1,5-a]pyrimidin-3-yl)-6,7-dihydro-4H-pyrano[4,3-d]thiazole], with 10 to 50 nM; and `COc1cc2nc(-c3c(N)nn4ccc(N5CCC[C@@H]5c5cc(F)ccc5F)nc34)[nH]c2cc1OC` [Compound 193, (R)-5-(2-(2,5-difluorophenyl)pyrrolidin-1-yl)-3-(5,6-dimethoxy-1H-benzo[d]imidazol-2-yl)pyrazolo[1,5-a]pyrimidin-2-amine], with ≤ 10 nM. With `COc1cc2nc(-c3c(N)nn4ccc(N5CCC[C@@H]5c5cc(F)ccc5F)nc34)[nH]c2cc1C#N` [Compound 194, (R)-2-(2-amino-5-(2-(2,5-difluorophenyl)pyrrolidin-1-yl)pyrazolo[1,5-a]pyrimidin-3-yl)-5-methoxy-1H-benzo[d]imidazole-6-carbonitrile], the IC50 is ≤ 10 nM.

For `COc1cc2[nH]c(-c3cnn4ccc(N5CCC[C@H]5c5cc(F)ccc5F)nc34)nc2cc1C#N` [Compound 197, (S)-2-(5-(2-(2,5-difluorophenyl)pyrrolidin-1-yl)pyrazolo[1,5-a]pyrimidin-3-yl)-6-methoxy-1H-benzo[d]imidazole-5-carbonitrile], the 50% inhibitory concentration (IC50) lay within 10 to 50 nM. Consider `COc1cc2[nH]c(-c3cnn4ccc(N5CCC[C@@H]5c5ccc(F)cc5)nc34)nc2cc1C#N` [Compound 198, (R)-2-(5-(2-(4-fluorophenyl)pyrrolidin-1-yl)pyrazolo[1,5-a]pyrimidin-3-yl)-6-methoxy-1H-benzo[d]imidazole-5-carbonitrile], for which the half-inhibitory concentration (IC50) was > 50 nM. Consider `COc1cc2nc(-c3cnn4ccc(N5CCC[C@@H]5c5cc(F)ccc5F)nc34)cn2cc1OC` [Compound 199, (R)-5-(2-(2,5-difluorophenyl)pyrrolidin-1-yl)-3-(6,7-dimethoxyimidazo[1,2-a]pyridin-2-yl)pyrazolo[1,5-a]pyrimidine], for which the half-inhibitory concentration (IC50) was in the range of 10 to 50 nM. The same measure, in the same setting: next, `Fc1ccc(F)c([C@H]2CCCN2c2ccn3ncc(-c4nnc5n4CCOC5)c3n2)c1` [Compound 200, (R)-3-(5-(2-(2,5-difluorophenyl)pyrrolidin-1-yl)pyrazolo[1,5-a]pyrimidin-3-yl)-5,6-dihydro-8H-[1,2,4]triazolo[3,4-c][1,4]oxazine]: 10 to 50 nM.

Staying with this test, now noted: numeric values; read-out: Trk A Kinase IC50.
As for `N#Cc1cc2nc(-c3cnn4ccc(N5CCC[C@@H]5c5cc(F)ccc5F)nc34)oc2cc1O` [Compound 177, (R)-2-(5-(2-(2,5-difluorophenyl)pyrrolidin-1-yl)pyrazolo[1,5-a]pyrimidin-3-yl)-6-hydroxybenzo[d]oxazole-5-carbonitrile], the IC50 came out at 1.2 nM. Take `Fc1ccc(F)c([C@H]2CCCN2c2ccn3ncc(-c4cc5ccc(F)cc5[nH]4)c3n2)c1` [Compound 183, (R)-5-(2-(2,5-difluorophenyl)pyrrolidin-1-yl)-3-(6-fluoro-1H-indol-2-yl)pyrazolo[1,5-a]pyrimidine]: the IC50 turned out to be 20.4 nM. Still for that read-out and setting: then `O[C@H]1CCn2nc(-c3cnn4ccc(N5CCC[C@@H]5c5cc(F)ccc5F)nc34)nc2C1` [Compound 187, (S)-2-(5-((R)-2-(2,5-difluorophenyl)pyrrolidin-1-yl)pyrazolo[1,5-a]pyrimidin-3-yl)-5,6,7,8-tetrahydro-[1,2,4]triazolo[1,5-a]pyridin-7-ol], with 6.6 nM; and `COc1cc2[nH]c(-c3cnn4ccc(N5CCC[C@@H]5c5ccccc5F)nc34)nc2cc1C#N` [Compound 195, (R)-2-(5-(2-(2-fluorophenyl)pyrrolidin-1-yl)pyrazolo[1,5-a]pyrimidin-3-yl)-6-methoxy-1H-benzo[d]imidazole-5-carbonitrile], with 2.3 nM. Still for that read-out and setting: then `COc1cc2[nH]c(-c3cnn4ccc(N5CCC[C@@H]5c5cccc(F)c5)nc34)nc2cc1C#N` [Compound 196, (R)-2-(5-(2-(3-fluorophenyl)pyrrolidin-1-yl)pyrazolo[1,5-a]pyrimidin-3-yl)-6-methoxy-1H-benzo[d]imidazole-5-carbonitrile], with 2.6 nM.

These data come from patent US20210395256A1, “TYROSINE KINASE INHIBITORS, COMPOSITIONS AND METHODS THERE OF” (Betta Pharmaceuticals Co., Ltd., priority 2018, published 2021).
